row,melting point [°C],Structure (SMILES)
1,225 to 233,CCC(=NNc1ccc(-c2ccc(=O)n(C)n2)cc1)c1ccc(O)cc1O
2,85 to 88,CCC(CC)Nc1cc(C)nc(Oc2c(C)cc(C)cc2C)c1C(N)=O
3,167 to 169,CS(=O)(=O)N1CCS(=O)c2cccc(Cl)c2C1 (stereo not drawn)
4,119 to 124,CCOC(=O)c1ccc(NC(=O)C(COc2cccnc2)NS(=O)(=O)c2ccc(Cl)cc2)cc1 (racemic)
5,169 to 170,Nc1nc(Cl)c2ncn(CC3CCOCO3)c2n1 (stereo not drawn)
6,70 to 72,C=CCOc1ccccc1[N+](=O)[O-]
7,122 to 123,CCSc1cc(C)nc(SCC)c1NC(=O)CCCCSc1nc2ccccc2o1
8,135 to 144,Cc1ccsc1C(=O)N1CCC(Sc2ccc(CCNC[C@H](O)COc3ccc(O)cc3)cc2)CC1
9,141 to 146,NS(=O)(=O)c1ccccc1C1CCOC1=O (stereo not drawn)
10,118 to 120,CCOC(=O)c1cc2c(-c3ccc(C(F)(F)F)n(C)c3=O)c(F)cc(Cl)c2o1
11,213 to 214,CCOC(=O)c1sc(NC(=O)c2cc(-c3cccs3)ccc2O)nc1-c1ccccc1
12,111 to 112,COc1c(C)c(N)c2c(c1C)C(c1ccc(C(C)C)cc1)C(C)(C)O2 (stereo not drawn)
13,128,CCOC(=O)N1CC[C@@H](N2C(=O)c3ccccc3C2=O)[C@H](O)C1 (relative stereo)
14,153 to 154,COc1nc(C)nc(NN)c1Cl
15,179 to 182,O=[N+]([O-])c1cnn2ccccc12
16,66 to 69,CCOP(=O)(CNCc1ccnc(-c2cc(C(C)(C)C)c(O)c(C(C)(C)C)c2)c1)OCC
17,152,CS(=O)(=O)C(=C1CN(C(c2ccccc2)c2ccccc2)C1)c1cccc(C#N)c1
18,65 to 69,CCCCN(C)C(=NC#N)NCc1cccnc1
19,86 to 88,CCOCCn1nc(-c2cc(C(C)(C)C)c(O)c(C(C)(C)C)c2)c2cccnc21
20,140 to 141,COC(=O)c1cccc([N+](=O)[O-])c1NCc1ccc(-c2ccccc2C#N)cc1
21,155 to 156,Oc1cc2c(cc1O)-c1ccccc1C2
22,77 to 79,CC(=O)Cc1ccc2oc(C(=O)O)c(C)c2c1
23,143 to 145,CCc1ccc2nnc(C(=O)Oc3ccccc3)cc2c1
24,148 to 150,Cc1cccc(CCc2c(C(C)C)nc(C(C)C)c(CO)c2-c2ccc(F)cc2)c1

row,melting point [°C],Structure (SMILES)
1,207 to 211,C[C@]1(COc2ccc(N3CCC(Cc4ccc(Cl)cc4)CC3)cc2)Cn2cc([N+](=O)[O-])nc2O1
2,152,O=C(OCc1c(Cl)ccc2cc(Cl)cnc12)c1ccccc1[N+](=O)[O-]
3,137 to 139,O=C(O)c1cc(-c2ccc(Br)cc2)c(=O)n(Cc2ccc(Cl)cc2Cl)c1
4,185 to 188,O=C1NC(=O)C(=Cc2ccc(OCCN(Cc3ccccc3)c3nc4ccccc4s3)cc2)S1
5,199 to 201,Cc1oc(-c2ccccc2)nc1CCOc1ccc(C[C@H](NC(=O)C=Cc2ccc(F)cc2F)C(=O)O)cc1
6,55 to 63,Cc1ccc(C(=C(C=CC(O)CC(=O)CC(=O)OC(C)(C)C)c2nnnn2C)c2ccc(C)cc2F)c(F)c1 (stereo not drawn)
7,161 to 162,O=C(NCCO)c1cccc(-c2ccc3ccn(Cc4ccc(Cl)cc4Cl)c3n2)c1
8,128,COc1cc2c(cc1OC)CN(CCCc1cccc(NC(=O)c3cccc4c(=O)c5cccc(F)c5[nH]c34)c1)CC2
9,132 to 134,CC(C)Oc1cc(CCC(=O)NS(=O)(=O)CCCc2ccccc2)n(Cc2ccc(Cl)cc2Cl)n1
10,74 to 76,Cc1ccc(NC(=O)C(C)(C)C)c(-c2cncc(Br)n2)c1
11,129 to 131,Cc1c(Br)cccc1NS(=O)(=O)c1cc(S(=O)(=O)Nc2cccc(Br)c2C)c2cc(O)ccc2c1
12,156 to 158,Cc1c(CCN(C(=O)C(F)(F)F)c2cc3ccccc3n2C)ncn1S(=O)(=O)N(C)C
13,199 to 203,COc1cc(C(C)C)c(Oc2cnc(N)nc2N)cc1-c1ccco1
14,188,O=C(O)c1cn(C2CC2)c2c(F)c(F)c(F)c(NC(=O)C(F)(F)F)c2c1=O
15,121 to 123,COCOc1cc(OC)c(OCOC)c(CCO)c1OC
16,127,Cc1ccc(S(=O)(=O)N2C[C@H](O)C[C@H]2CO)cc1
17,99 to 100,COC(=O)C1=C(C)NC(C(OC)OC)=C(C(=O)OC)C1c1cccc([N+](=O)[O-])c1 (stereo not drawn)
18,109 to 110,CCOC(Cc1ccc(OCCN(C)c2nc3ccccc3o2)cc1)C(=O)O (stereo not drawn)
19,153 to 154,CON(C)C(=O)CC1CN=C(c2cc3cccc(N(C)S(=O)(=O)c4cccs4)c3[nH]2)S1 (stereo not drawn)
20,152 to 154,CCCCCCCC1=CC(=O)N(c2ccccc2)C1(O)CBr (stereo not drawn)
21,195 to 198,Oc1ccccc1-c1ccnc(-c2ccccc2)n1
22,206 to 208,CN1C(=O)NC2(CCN(C(=O)OC(C)(C)C)CC2)C1=O
23,140 to 143,CCN(c1ccc(C)cc1)c1cc(NC)nc(C)n1
24,49.5 to 51.2,COc1ccc(NC(=O)c2ccccc2OC)cc1

row,melting point [°C],Structure (SMILES)
1,111 to 112,Cc1ccccc1C(=O)c1nc(Cl)ccc1[N+](=O)[O-]
2,83,CCCC(=O)C1=C(O)CC(c2c(C)c(C)c3c(c2C)CC(C)(C)O3)CC1=O (stereo not drawn)
3,215 to 217,O=C1N(Cc2cnc(Br)s2)c2ccccc2C12COc1cc3c(cc12)OCO3 (stereo not drawn)
4,133 to 134,CCOC(=O)C1=C(N)N=C(OCC)C(C(=O)O)C1c1ccccc1[N+](=O)[O-] (stereo not drawn)
5,108 to 110,C[C@@H](O)Cn1ccc2cc(Cl)c(F)cc21
6,153 to 154,Cc1nc(N2CCN(Cc3ccc(C(F)(F)F)cc3)C2=O)sc1-c1ccno1
7,70 to 71.5,CCOC(=O)c1snc(-c2ccccc2)c1C(=O)OCC
8,232,O=C(NC1CCC(c2cc(Nc3cccc(C(F)(F)F)c3)n[nH]2)C1)C1CCC1 (stereo not drawn)
9,< 40,CCOC(=O)C(O)=CC=C(SCc1ccccc1)C(=O)OCC
10,156 to 157,COC(=O)COc1c(C)cc(SCc2ccc(-c3ccc(C(F)(F)F)cn3)cc2)c2c1CCCO2
11,261 to 263,CCCOc1ccc(S(=O)(=O)Nc2ccc3[nH]ncc3c2)cc1-c1nc2cc(Cl)c([N+](=O)[O-])cc2c(=O)[nH]1
12,214 to 215,O=C(Nc1noc2ccccc12)N1CCN(c2nc(N3CCCCC3)ns2)CC1
13,112 to 115,O=C(O)C(CC1CCCC1)c1ccc(Cl)c([N+](=O)[O-])c1 (stereo not drawn)
14,146 to 149,CCOc1ccc2c(c1)n(CCN1CCOCC1)c(=O)n2S(=O)(=O)c1ccc(OC)cc1OC
15,206 to 208,CC(=O)NCc1ccc2c(c1)[C@@H](N1CCCC1=O)[C@H](O)C(C)(C)O2 (relative stereo)
16,143 to 144,Fc1cccc(F)c1-c1nc2c(s1)NCCCC2
17,92 to 95,COC(=O)CCc1nc(C=O)ccc1O
18,164 to 166,CCOC(=O)c1c(S(N)(=O)=O)nc2sccn12
19,87 to 92,OC(CSc1ncnc2c1cnn2CC1CO1)CN1CCN(C(c2ccccc2)c2ccccc2)CC1 (stereo not drawn)
20,302 to 308,O=C(O)c1ccccc1CCc1n[nH]c2c1c(=O)n(-c1ccccc1)c1ncccc21
21,196,COc1ccc(-c2c(Cl)ncn2-c2ccc(S(C)(=O)=O)cc2)cc1F
22,149 to 150,CCn1nc(Cc2ccc(NC(=O)/C=C/c3cnn(C)c3-c3ccc(F)cc3)cc2)oc1=O
23,176 to 179,CC(C)(C)CC(C)(C)c1cc(N=Nc2ccc(-c3ccccc3)cc2[N+](=O)[O-])c(O)c(C(C)(C)c2ccccc2)c1
24,175 to 192,N=C(N)Nc1nc(CSCCC2=NS(=O)(=O)NC(N)=N2)cs1

row,melting point [°C],Structure (SMILES)
1,131 to 132,Cc1nc(-c2cn(Cc3ccc(C(F)(F)F)cc3)nn2)sc1C(=O)NCc1ccccc1
2,221 to 222,Clc1cc(Cl)c2nc3c4ccccc4c4ccccc4c3nc2c1
3,195 to 205,CC(=O)c1c(C)[nH]c(CC(=O)O)c1C
4,130 to 131,Fc1ccc(N2CCN(Cc3cn4cc(Cl)ccc4n3)CC2)cc1
5,218 to 220,COc1ncnc(-c2cc(NS(C)(=O)=O)c(C#N)cc2F)c1C
6,181,CC1(C)OC2C(Br)=CC(CC(N)=O)C(Br)C2O1 (stereo not drawn)
7,53 to 60,O=[N+]([O-])c1cc(Cl)ccc1I(Cl)Cl
8,156 to 158,CCC(C(=O)O)N(C(=O)c1cn(-c2cccc(C(F)(F)F)c2)nc1C)c1ccc(OCC(C)(C)C)c(C#N)c1 (stereo not drawn)
9,84 to 85,Cc1ccc(C)c(C(C)Sc2cc(C)c3ccccc3n2)c1 (stereo not drawn)
10,55 to 56,CC(C)(O)Cc1cccc(C(F)(F)F)c1
11,204 to 205,Nc1c(C(=O)Cc2ccccc2)[nH]c2cc(Cl)ccc12
12,95 to 96,CON=C(C)c1c(C)sc(C)c1CS(=O)(=O)C1=NOC(C)(C)C1
13,141 to 142,Cc1oc(-c2ccccc2)nc1COc1ccc2c(c1)CCC(CO)=C2
14,109 to 110,CC(=O)OC1C(C)=C(C)C(=O)N1c1ccc(Cl)c(Cl)c1 (stereo not drawn)
15,116,Cc1cccc2c(C#N)cn(C)c12
16,90 to 92,CCOC(=O)c1cc(=O)c(Sc2ccc(OC)cc2)co1
17,148 to 149,CC1CC(C)CN(C(=O)C2Cc3ccccc3N2C(=O)OC(C)(C)C)C1 (stereo not drawn)
18,106 to 108,COc1cccc2c1Oc1cc(Cl)ccc1C2
19,208 to 210,Cc1cnc2c(C#N)c(C)nn2c1-c1ccccc1
20,167 to 170,CN(CCCOc1ccc(OC(F)(F)F)cc1)C1CCN(c2ccc(OC[C@@]3(C)Cn4cc([N+](=O)[O-])nc4O3)cc2)CC1
21,167 to 168,O=C(O)c1ccccc1Oc1ccc(C(F)(F)F)cc1NS(=O)(=O)c1ccc(Br)cc1
22,108 to 110,CCOC(=O)c1cccc(-c2nc(-c3ccc(OCC)cc3)cs2)c1
23,202 to 204,COC(=O)c1cccn2c(C(=O)c3ccc(N4C[C@H](CNC(C)=O)OC4=O)cc3)cnc12
24,258 to 259,CCn1c(=O)[nH]c2c3cccnc3ccc21

row,Structure (SMILES),melting point [°C]
1,COc1ccc(C=C(C#N)C#N)cc1OC,108
2,CCOC(=O)c1ncn2c1CNC(=O)c1c(Cl)cccc1-2,278 to 279
